Results on one compound are retold here after PMC5889475 (Biochimie Open, 2015).

The target of this assay is T1, His-GlNMNAT (GlNMNAT, GlNMNAT-A) (Giardia duodenalis, UniProt A8BW22).
T1 sequence (A8BW22 1-227): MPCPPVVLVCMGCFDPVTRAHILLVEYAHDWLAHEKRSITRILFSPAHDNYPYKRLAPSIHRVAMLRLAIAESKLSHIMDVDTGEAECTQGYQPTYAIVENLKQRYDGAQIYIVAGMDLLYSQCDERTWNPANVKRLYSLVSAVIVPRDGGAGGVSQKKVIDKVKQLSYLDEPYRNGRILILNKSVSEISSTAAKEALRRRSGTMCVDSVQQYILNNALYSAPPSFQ
The assay is described as follows: C18-HPLC of NAAD formation. To be noted: ATP 10 mM; NAMN 0.25-12 mM. It is filed as biochemical.

Consider `O=C([O-])c1ccc[n+]([C@@H]2O[C@H](COP(=O)(O)O)[C@@H](O)[C@H]2O)c1` [NAMN], for which the “C18-HPLC of NAAD formation” value is “for NAMN saturation was not observed, implying that the enzyme has low affinity yet detectable”.
